Key:
DTX3L/PARP9 complex = target: T1, DTX3L/PARP9 complex (Homo sapiens, UniProt Q8IXQ6+Q8TDB6); assay: FP binding of fluorescent AR peptides to DTX3L/PARP9 complex; conditions: 50 nM peptide, RT 45 min, triplicate
T1 construct: made in house; host or cells: Sf21 insect cells
Protocol: Figure 2 Interaction of DTX3L/PARP9 and ADP-ribosylated AR peptides measured by FP assays. […] The reaction mixture was incubated at RT for 45 min, FP measured in a PHERAstar FSX Microplate Reader (BMG Labtech), and the binding curves were fitted for specific binding with GraphPad Prism v 9.3.1. The error bars represent the standard deviations.
Recombinant PARP9, DTX3L, and DTX3LΔN (N-terminal deletion mutant) were expressed in Sf21 insect cells and purified as previously described.[14] Complex formation of DTX3L/PARP9 or DTX3LΔN/PARP9 was carried out in an equal-molar ratio by incubating the proteins at >1 mg mL^–1 for each on ice for ∼4 h. Fluorescently labeled AR peptides (50 nM final concentration) 1–5 were mixed with various concentrations of the individual recombinant proteins or the protein complexes in a reaction buffer containing 20 mM Tris–HCl (pH 7.5), 50 mM NaCl, 0.1 mM EDTA, and 2 mM DTT, incubated at RT for 45 min and then measured in a PHERAstar FSX Microplate Reader (BMG Labtech). The assays were performed in triplicate. Competition assays were performed with 50 μM ADP-ribose. After correction for signals due to the fluorescent AR peptide alone, polarization values were plotted and analyzed with Prism (GraphPad) using nonlinear fit for specific binding with Hill slope.

[1] = target: dual ADP-ribosylated AR peptide 1, bis-ADP-ribosylated AR(280-294): CF-RPTPC(ADPr)APLAEC(ADPr)KGSL-OH; assay: fluorescence polarisation; 50 nM CF-labelled AR peptide; recombinant protein or preassembled complex titrated (2500 nM or 2000 nM highest, 2-fold serial dilution); 20 mM Tris-HCl pH 7.5, 50 mM NaCl, 0.1 mM EDTA, 2 mM DTT; RT, 45 min; triplicate; fit for specific binding with Hill slope

Substance	binding to DTX3L/PARP9 (in words) (DTX3L/PARP9 complex)	Kd [1]
CF-Arg-Pro-Thr-Pro-Cys(5-O-adenosine-diphosphate-α-D-ribosyl)-Ala-Pro-Leu-Ala-OH [Peptide 3, CF-labeled mono-ADPr AR peptide]	near-background level of binding	–
CF-Pro-Leu-Ala-Glu-Cys(5-O-adenosine-diphosphate-α-D-ribosyl)-Lys-Gly-Ser-Leu-OH [Peptide 2, CF-labeled mono-ADPr AR peptide]	near-background level of binding	–
CF-RPTPCAPLAECKGSL-OH [Peptide 6]	did not bind significantly	–
DTX3LΔN/PARP9 complex (from UniProt Q8TDB6 1-740; Q8IXQ6 1-854)	–	> 500 nM

Source: article PMC10660311 (ACS Chemical Biology, 2023)
